# Laboratory results published in ChEMBL document CHEMBL3994622, “Design and synthesis of new RAF kinase-inhibiting antiproliferative quinoline derivatives. Part 2: Diarylurea derivatives” (Eur J Med Chem, 2017).
# Key:
# [1] = test system: HL-60(TB); test: Growth inhibition of human HL-60(TB) cells incubated for 48 hrs by sulforhodamine B assay; type: functional; conditions: HL-60, 48 h; for CC50: read-out: LC50 (the source's name)
# [2] = test system: A549; test: Growth inhibition of human A549/ATCC cells assessed as cell growth at 10 uM incubated for 48 hrs by sulforhodamine B assay relative to control; type: functional; conditions: A549, 48 h, read-out: Activity
# [3] = test system: U-251; test: Growth inhibition of human U251 cells incubated for 48 hrs by sulforhodamine B assay; type: functional; conditions: U-251, 48 h; for CC50: read-out: LC50 (the source's name)
# [4] = molecular target: T1, RAF proto-oncogene serine/threonine-protein kinase (Homo sapiens, UniProt P04049); test: Inhibition of human c-RAF at 10 uM using MEK1 as substrate in presence of [33P]ATP by Hotspot assay relative to control
# T1 sequence (P04049 whole entry): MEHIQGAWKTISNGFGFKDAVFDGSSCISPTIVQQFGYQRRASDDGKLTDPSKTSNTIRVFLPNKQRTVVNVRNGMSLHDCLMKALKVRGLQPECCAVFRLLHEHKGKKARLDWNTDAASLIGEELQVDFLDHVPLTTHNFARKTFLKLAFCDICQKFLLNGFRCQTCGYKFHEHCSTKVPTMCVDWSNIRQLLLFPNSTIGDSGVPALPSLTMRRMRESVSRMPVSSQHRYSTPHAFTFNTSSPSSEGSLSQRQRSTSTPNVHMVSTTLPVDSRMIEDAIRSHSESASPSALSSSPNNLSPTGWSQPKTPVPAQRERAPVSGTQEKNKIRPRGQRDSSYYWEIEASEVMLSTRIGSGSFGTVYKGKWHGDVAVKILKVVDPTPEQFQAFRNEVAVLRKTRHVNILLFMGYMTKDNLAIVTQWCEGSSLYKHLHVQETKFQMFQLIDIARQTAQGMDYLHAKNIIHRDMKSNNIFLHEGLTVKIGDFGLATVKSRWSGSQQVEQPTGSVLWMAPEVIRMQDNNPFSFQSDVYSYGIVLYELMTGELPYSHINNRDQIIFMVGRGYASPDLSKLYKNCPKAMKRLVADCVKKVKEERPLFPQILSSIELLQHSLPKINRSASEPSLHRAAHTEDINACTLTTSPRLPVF
# [5] = test system: SF-268; test: Growth inhibition of human SF268 cells incubated for 48 hrs by sulforhodamine B assay; type: functional; conditions: SF-268, 48 h
# [6] = test system: CCRF-CEM; test: Growth inhibition of human CCRF-CEM cells incubated for 48 hrs by sulforhodamine B assay; type: functional; conditions: for CC50: read-out: LC50 (the source's name)
# [7] = test system: HOP-92; test: Growth inhibition of human HOP92 cells incubated for 48 hrs by sulforhodamine B assay; type: functional; conditions: HOP-92, 48 h
# [8] = test system: NCI-H460; test: Growth inhibition of human NCI-H460 cells incubated for 48 hrs by sulforhodamine B assay; type: functional; conditions: NCI-H460, 48 h; for CC50: read-out: LC50 (the source's name)
# [9] = test system: SK-OV-3; test: Growth inhibition of human SKOV3 cells incubated for 48 hrs by sulforhodamine B assay; type: functional; conditions: SK-OV-3, 48 h; for CC50: read-out: LC50 (the source's name)
# [10] = test system: NCI-H522; test: Growth inhibition of human NCI-H522 cells incubated for 48 hrs by sulforhodamine B assay; type: functional; conditions: NCI-H522, 48 h; for CC50: read-out: LC50 (the source's name)
# [11] = test system: HCC 2998; test: Growth inhibition of human HCC2998 cells incubated for 48 hrs by sulforhodamine B assay; type: functional; conditions: HCC 2998, 48 h; for CC50: read-out: LC50 (the source's name)
# [12] = test system: Hs-578T; test: Growth inhibition of human Hs 578T cells incubated for 48 hrs by sulforhodamine B assay; type: functional; conditions: for CC50: read-out: LC50 (the source's name)
# [13] = test system: SW-620; test: Growth inhibition of human SW620 cells incubated for 48 hrs by sulforhodamine B assay; type: functional; conditions: SW-620, 48 h
# [14] = molecular target: T1, RAF proto-oncogene serine/threonine-protein kinase; test: Inhibition of human c-RAF using MEK1 as substrate in presence of [33P]ATP by Hotspot assay
# [15] = test system: MDA-MB-435; test: Growth inhibition of human MDA-MB-435 cells assessed as cell growth at 0.01 uM incubated for 48 hrs by sulforhodamine B assay relative to control; type: functional; conditions: MDA-MB-435, 48 h, read-out: Activity
# [16] = test system: K562; test: Growth inhibition of human K562 cells assessed as cell growth at 0.1 uM incubated for 48 hrs by sulforhodamine B assay relative to control; type: functional; conditions: K562, 48 h, read-out: Activity
# [17] = test system: HCT-116; test: Growth inhibition of human HCT116 cells incubated for 48 hrs by sulforhodamine B assay; type: functional; conditions: HCT-116, 48 h
# [18] = test system: SK-OV-3; test: Growth inhibition of human SKOV3 cells assessed as cell growth at 100 uM incubated for 48 hrs by sulforhodamine B assay relative to control; type: functional; conditions: SK-OV-3, 48 h, read-out: Activity
# [19] = test system: MOLT-4; test: Growth inhibition of human MOLT4 cells incubated for 48 hrs by sulforhodamine B assay; type: functional; conditions: MOLT-4, 48 h
# [20] = test system: HT-29; test: Growth inhibition of human HT-29 cells incubated for 48 hrs by sulforhodamine B assay; type: functional; conditions: HT-29, 48 h; for CC50: read-out: LC50 (the source's name)
# [21] = test system: RPMI-8226; test: Growth inhibition of human RPMI8226 cells incubated for 48 hrs by sulforhodamine B assay; type: functional; conditions: RPMI-8226, 48 h
# [22] = test system: KM12; test: Growth inhibition of human KM12 cells assessed as cell growth at 0.1 uM incubated for 48 hrs by sulforhodamine B assay relative to control; type: functional; conditions: KM12, 48 h, read-out: Activity
# [23] = test system: OVCAR-5; test: Growth inhibition of human OVCAR5 cells incubated for 48 hrs by sulforhodamine B assay; type: functional; conditions: OVCAR-5, 48 h; for CC50: read-out: LC50 (the source's name)
# [24] = test system: NCI-H226; test: Growth inhibition of human NCI-H226 cells incubated for 48 hrs by sulforhodamine B assay; type: functional; conditions: NCI-H226, 48 h; for CC50: read-out: LC50 (the source's name)
# [25] = test system: TK-10; test: Growth inhibition of human TK10 cells incubated for 48 hrs by sulforhodamine B assay; type: functional; conditions: TK-10, 48 h; for CC50: read-out: LC50 (the source's name)
# [26] = test system: IGROV-1; test: Growth inhibition of human IGROV1 cells assessed as cell growth at 10 uM incubated for 48 hrs by sulforhodamine B assay relative to control; type: functional; conditions: IGROV-1, 48 h, read-out: Activity
# [27] = test system: M14; test: Growth inhibition of human M14 cells incubated for 48 hrs by sulforhodamine B assay; type: functional; conditions: M14, 48 h; for CC50: read-out: LC50 (the source's name)
# [28] = test system: U-251; test: Growth inhibition of human U251 cells assessed as cell growth at 10 uM incubated for 48 hrs by sulforhodamine B assay relative to control; type: functional; conditions: U-251, 48 h, read-out: Activity
smiles,measurement,setting,value
COc1cc2cc(Oc3ccc(NC(=O)Nc4ccc(Cl)c(Cl)c4)cc3)c(C)nc2cc1OC,GI50,[1],2.76 µM
same,TGI,[1],6.75 µM
same,CC50,[1],> 100 µM
same,growth at 10 µM,[2],-9%
same,GI50,[3],2.19 µM
same,TGI,[3],7.26 µM
same,CC50,[3],26.5 µM
same,inhibition,[4],97.8%
same,GI50,[5],8.23 µM
same,LC50 (50% lethal concentration),[5],> 100 µM
same,TGI,[5],> 100 µM
same,GI50,[6],2.38 µM
same,TGI,[6],14 µM
same,CC50,[6],> 100 µM
same,GI50,[7],2.04 µM
same,LC50,[7],14.2 µM
same,TGI,[7],4.88 µM
same,GI50,[8],2.46 µM
same,TGI,[8],10.1 µM
same,CC50,[8],45.8 µM
same,GI50,[9],7.56 µM
same,TGI,[9],26.4 µM
same,CC50,[9],84.8 µM
same,GI50,[10],1.74 µM
same,TGI,[10],8.43 µM
same,CC50,[10],59.5 µM
same,GI50,[11],5.54 µM
same,TGI,[11],> 100 µM
same,CC50,[11],> 100 µM
same,GI50,[12],3.53 µM
same,TGI,[12],9.68 µM
same,CC50,[12],> 100 µM
same,GI50,[13],4.24 µM
same,LC50,[13],60.9 µM
same,TGI,[13],15.6 µM
same,IC50,[14],0.22 µM
same,growth at 0.01 µM,[15],94%
same,growth at 0.1 µM,[16],107%
same,GI50,[17],2.26 µM
same,LC50 (50% lethal concentration),[17],32.6 µM
same,TGI,[17],10.5 µM
same,growth at 100 µM,[18],-57%
same,GI50,[19],3.02 µM
same,LC50,[19],> 100 µM
same,TGI,[19],22.8 µM
same,GI50,[20],2.34 µM
same,TGI,[20],4.89 µM
same,CC50,[20],10.6 µM
same,GI50,[21],1.62 µM
same,"LC50 (lethal concentration, 50% cell kill)",[21],> 100 µM
same,TGI,[21],5.73 µM
same,growth at 0.1 µM,[22],104%
same,GI50,[23],10.1 µM
same,TGI,[23],34.3 µM
same,CC50,[23],> 100 µM
same,GI50,[24],3.12 µM
same,TGI,[24],8.68 µM
same,CC50,[24],35.8 µM
same,GI50,[25],3.46 µM
same,TGI,[25],9.18 µM
same,CC50,[25],43.3 µM
same,growth at 10 µM,[26],30%
same,GI50,[27],2.56 µM
same,TGI,[27],10.5 µM
same,CC50,[27],34.7 µM
same,growth at 10 µM,[28],-13%
COc1cc2cc(Oc3ccc(NC(=O)Nc4cc(C(F)(F)F)cc(C(F)(F)F)c4)cc3)c(C)nc2cc1OC,GI50,[1],1.58 µM
same,TGI,[1],4.37 µM
same,CC50,[1],41.8 µM
same,growth at 10 µM,[2],-31%
same,GI50,[3],1.08 µM
same,TGI,[3],2.47 µM
same,CC50,[3],5.61 µM
same,inhibition,[4],92.4%
same,GI50,[5],1.62 µM
same,LC50 (50% lethal concentration),[5],8.37 µM
same,TGI,[5],3.68 µM
same,GI50,[6],0.64 µM
same,TGI,[6],3.47 µM
same,CC50,[6],> 100 µM
same,GI50,[7],1.12 µM
same,LC50,[7],40.9 µM
same,TGI,[7],3.9 µM
same,GI50,[8],0.96 µM
same,TGI,[8],2.72 µM
same,CC50,[8],7.53 µM
same,GI50,[9],1.71 µM
same,TGI,[9],3.47 µM
same,CC50,[9],5.91 µM
same,GI50,[10],1.25 µM
same,TGI,[10],2.95 µM
same,CC50,[10],6.95 µM
same,GI50,[11],1.53 µM
same,TGI,[11],3.15 µM
same,CC50,[11],6.49 µM
same,GI50,[12],2.65 µM
same,TGI,[12],6.94 µM
same,CC50,[12],8.07 µM
same,GI50,[13],1.94 µM
same,LC50,[13],39.3 µM
same,TGI,[13],5.71 µM
same,IC50,[14],0.37 µM
same,growth at 0.01 µM,[15],94%
same,growth at 0.1 µM,[16],108%
same,GI50,[17],0.589 to 0.59 µM
same,LC50 (50% lethal concentration),[17],5.16 µM
same,TGI,[17],1.92 µM
same,growth at 100 µM,[18],-89%
same,GI50,[19],1.13 µM
same,LC50,[19],> 100 µM
same,TGI,[19],4.04 µM
same,GI50,[20],1.52 µM
same,TGI,[20],3.46 µM
same,CC50,[20],7.91 µM
same,GI50,[21],0.41 to 0.46 µM
same,"LC50 (lethal concentration, 50% cell kill)",[21],> 100 µM
same,TGI,[21],5.51 µM
same,growth at 0.1 µM,[22],95%
same,GI50,[23],1.93 µM
same,TGI,[23],4.14 µM
same,CC50,[23],8.88 µM
same,GI50,[24],1.8 µM
same,TGI,[24],3.91 µM
same,CC50,[24],8.53 µM
same,GI50,[25],2.32 µM
same,TGI,[25],9.18 µM
same,CC50,[25],5.99 µM
same,growth at 10 µM,[26],-55%
same,GI50,[27],1 µM
same,TGI,[27],2.88 µM
same,CC50,[27],8.25 µM
same,growth at 10 µM,[28],-85%
